Source: patent US6376518B1, “Acyl derivatives of 4-demethylpenclomedine, use thereof and preparation thereof” (Southern Research Institute, priority 1999, dated 2002)
Read-outs that look alike come from different tables or passages of the source. Marks after values point to notes of the source that are not given here.

Legend:
human MX-1 mammary tumor [1] = test: In vivo antitumor activity vs s.c.-implanted human MX-1 mammary tumor xenograft in athymic mice; conditions: sc MX-1
human MX-1 mammary tumor [2] = test: In vivo antitumor activity vs i.c.-implanted human MX-1 mammary tumor xenograft in athymic mice; conditions: ic MX-1; for Median % ILS (dying mice only) / Tumor-Free-Surv/Total: Days 1-5
P388/CPA leukemia = test: Antitumor activity against IP-implanted P388/CPA leukemia in mice; assay type: in vivo, murine; conditions: P388/CPA, Q1D × 1 (1); for MEDIAN DAY OF DEATH: dying mice only
P388/0 leukemia = conditions: P388/0, Q1D × 1 (1); for MEDIAN DAY OF DEATH: dying mice only
P388/BCNU leukemia = test: Antitumor activity against IP-implanted P388/BCNU leukemia in mice; conditions: P388/BCNU, Q1D × 1 (1); for MEDIAN DAY OF DEATH: dying mice only
[3] = optimal doses (LD10 or less), schedule QD1-5, administered LP.
[4] = oral (gavage) 135 mg/kg/dose, Days 12-16
[5] = oral (gavage) 135 mg/kg/dose, Days 13-17

COc1nc(C(Cl)(Cl)Cl)c(Cl)c(OC(=O)c2cccs2)c1Cl [DM-TC-PEN]
Tumor-Free-Surv/Total (human MX-1 mammary tumor [1]; IP 90 mg/kg/dose, Days 12-16): 4/5 | activity against i.c.-implanted tumor in comparison to PEN and DM-PEN (in words) (human MX-1 mammary tumor [2]): significant activity | Median % ILS (dying mice only) (human MX-1 mammary tumor [2]; IP 135 mg/kg/dose): +100% | Tumor-Free-Surv/Total (human MX-1 mammary tumor [2]; IP 135 mg/kg/dose): 0/5 | Median % ILS (based on dying mice only) (human MX-1 mammary tumor [2]; [3]): 100^d % | Survivors (human MX-1 mammary tumor [2]; [3]): 0/5

O=P1(N(CCCl)CCCl)NCCCO1 (centres unmarked) [CPA (cyclophosphamide), cyclophosphamide]
50-DAY SURV/TOTAL (P388/CPA leukemia; IP 175.0 mg/kg/dose): 0/6 | % ILS (P388/CPA leukemia; IP 175.0 mg/kg/dose): +9% | APPROX. NET LOG10 CHANGE IN TUMOR BURDEN AT END OF Rx (P388/CPA leukemia; IP 175.0 mg/kg/dose): −0.6 | MEDIAN DAY OF DEATH (P388/CPA leukemia; IP 175.0 mg/kg/dose): 12.0 | 50-DAY SURV/TOTAL (P388/CPA leukemia; IP 265.0 mg/kg/dose): 0/6 | % ILS (P388/CPA leukemia; IP 265.0 mg/kg/dose): +27% | APPROX. NET LOG10 CHANGE IN TUMOR BURDEN AT END OF Rx (P388/CPA leukemia; IP 265.0 mg/kg/dose): −1.7 | MEDIAN DAY OF DEATH (P388/CPA leukemia; IP 265.0 mg/kg/dose): 14.0 | 50-DAY SURV/TOTAL (P388/0 leukemia; IP 175.0 mg/kg/dose): 1/6 | APPROX. NET LOG10 CHANGE IN TUMOR BURDEN AT END OF Rx (P388/0 leukemia; IP 175.0 mg/kg/dose): ca −8.8 | MEDIAN DAY OF DEATH (P388/0 leukemia; IP 175.0 mg/kg/dose): 30.0 | 50-DAY SURV/TOTAL (P388/0 leukemia; IP 265.0 mg/kg/dose): 6/6

COc1nc(C(Cl)(Cl)Cl)c(Cl)c(OC(=O)C(Cl)Cl)c1Cl [DM-DCA-PEN]
Tumor-Free-Surv/Total (human MX-1 mammary tumor [1]; IP 135 mg/kg/dose, Days 12-16): 2/5

O=NN(CCCl)C(=O)NCCCl [BCNU (carmustine), carmustine]
50-DAY SURV/TOTAL (P388/BCNU leukemia; IP 20.0 mg/kg/dose): 0/6 | % ILS (P388/BCNU leukemia; IP 20.0 mg/kg/dose): 0% | APPROX. NET LOG10 CHANGE IN TUMOR BURDEN AT END OF Rx (P388/BCNU leukemia; IP 20.0 mg/kg/dose): 0 | MEDIAN DAY OF DEATH (P388/BCNU leukemia; IP 20.0 mg/kg/dose): 9.0 | 50-DAY SURV/TOTAL (P388/BCNU leukemia; IP 30.0 mg/kg/dose): 0/6 | % ILS (P388/BCNU leukemia; IP 30.0 mg/kg/dose): −6% | APPROX. NET LOG10 CHANGE IN TUMOR BURDEN AT END OF Rx (P388/BCNU leukemia; IP 30.0 mg/kg/dose): +0.4 | MEDIAN DAY OF DEATH (P388/BCNU leukemia; IP 30.0 mg/kg/dose): 8.5 | 50-DAY SURV/TOTAL (P388/0 leukemia; IP 20.0 mg/kg/dose): 3/6 | APPROX. NET LOG10 CHANGE IN TUMOR BURDEN AT END OF Rx (P388/0 leukemia; IP 20.0 mg/kg/dose): ca −8.8 | MEDIAN DAY OF DEATH (P388/0 leukemia; IP 20.0 mg/kg/dose): 27.0 | 50-DAY SURV/TOTAL (P388/0 leukemia; IP 30.0 mg/kg/dose): 6/6

COc1nc(C(Cl)(Cl)Cl)c(Cl)c(OC(=O)CCl)c1Cl [DM-CA-PEN]
T-C (human MX-1 mammary tumor [1]; IP 60 mg/kg/dose, Days 12-16): >41.0 days | Tumor-Free-Surv/Total (human MX-1 mammary tumor [1]; IP 60 mg/kg/dose, Days 12-16): 3/5 | T-C (human MX-1 mammary tumor [1]; [4]): >41.0 days | Tumor-Free-Surv/Total (human MX-1 mammary tumor [1]; [4]): 5/5 | Median % ILS (dying mice only) (human MX-1 mammary tumor [2]; oral (gavage) 135 mg/kg/dose): +84%

COc1nc(C(Cl)(Cl)Cl)c(Cl)c(OC(=O)C(C)(C)C)c1Cl [DM-P-PEN]
Tumor-Free-Surv/Total (human MX-1 mammary tumor [1]; IP 135 mg/kg/dose, Days 11-15): 5/5 | T-C (human MX-1 mammary tumor [1]; [5]): 0.9 days | Tumor-Free-Surv/Total (human MX-1 mammary tumor [1]; [5]): 0/5 | Median % ILS (dying mice only) (human MX-1 mammary tumor [2]; IP 135 mg/kg/dose): +64% | Median % ILS (dying mice only) (human MX-1 mammary tumor [2]; oral (gavage) 135 mg/kg/dose): +20%

COc1nc(C(Cl)(Cl)Cl)c(Cl)c(OC(=O)CBr)c1Cl [DM-BA-PEN]
T-C (human MX-1 mammary tumor [1]; IP 135 mg/kg/dose, Days 12-16): >41.0 days | Tumor-Free-Surv/Total (human MX-1 mammary tumor [1]; IP 135 mg/kg/dose, Days 12-16): 2/5

CCCCCCCC(=O)Oc1c(Cl)c(OC)nc(C(Cl)(Cl)Cl)c1Cl [DM-O-PEN]
activity against i.c.-implanted tumor in comparison to PEN and DM-PEN (in words) (human MX-1 mammary tumor [2]): significant activity | Tumor-Free-Surv/Total (human MX-1 mammary tumor [2]; IP 90 mg/kg/dose): 0/5 | Survivors (human MX-1 mammary tumor [2]; [3]): 0/5

COc1nc(C(Cl)(Cl)Cl)c(Cl)c(OC(=O)CI)c1Cl [DM-IA-PEN]
Dose (mg/kg) with observed lethality level (human MX-1 mammary tumor [1]; IP 60 mg/kg/dose, Days 12-16): 60 (LD40) | Tumor-Free-Surv/Total (human MX-1 mammary tumor [1]; IP 60 mg/kg/dose, Days 12-16): 1/5

COc1nc(C(Cl)(Cl)Cl)c(Cl)c(OC(=O)c2ccc(CCl)cc2)c1Cl [DM-CMB-PEN]
Median % ILS (dying mice only) (human MX-1 mammary tumor [2]; IP 90 mg/kg/dose): +73% | Tumor-Free-Surv/Total (human MX-1 mammary tumor [2]; IP 90 mg/kg/dose): 0/5
